According to PubChem BioAssay AID330 (DTP/NCI, 2004):
Where “and” joins values, the source holds several entries; their conditions need not be identical. Identical values can stand only once. Inconclusive results and toxic doses are left out.

System: P388 leukemia ip, CD2F1 mice, survival T/C
Assay: NCI In Vivo Anticancer Drug Screen. Data for tumor model P388 Leukemia (intraperitoneal) in CD2F1 (CDF1) mice
Settings: endpoint: median survival time, higher = longer survival
Outline: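 Mice carrying the transplanted tumor received test compound or vehicle. Survival was recorded in each group, and the value is the treated-group measurement divided by that of the vehicle-treated control group.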

[1] = dose: 100.0 mg/kg/injection, schedule: Q04DX003 (ip), vehicle: Klucel (hydroxypropylcellulose) (HPC)
[2] = dose: 200.0 mg/kg/injection, schedule: Q04DX003 (ip), vehicle: Klucel (hydroxypropylcellulose) (HPC)
[3] = dose: 50.0 mg/kg/injection, schedule: Q01DX005 (ip), vehicle: saline with Tween-80
[4] = dose: 100.0 mg/kg/injection, schedule: Q01DX005 (ip), vehicle: saline with Tween-80
[5] = dose: 200.0 mg/kg/injection, schedule: Q01DX005 (ip), vehicle: saline with Tween-80
[6] = dose: 60.0 mg/kg/injection, schedule: Q01DX005 (ip), vehicle: saline with Tween-80
[7] = dose: 120.0 mg/kg/injection, schedule: Q01DX005 (ip), vehicle: saline with Tween-80
[8] = dose: 240.0 mg/kg/injection, schedule: Q01DX005 (ip), vehicle: saline with Tween-80

Q: Which T/C (dose: 0.78 mg/kg/injection, schedule: Q04DX002 (ip), vehicle: saline with Tween-80) does the source give for `CN=C(N)N/N=C(\C)c1ccc2c(c1)Cc1cc(/C(C)=N/NC(N)=NC)ccc1-2` here?
A: Its T/C is 124 % of control.

Q: And the T/C (dose: 6.25 mg/kg/injection, schedule: Q04DX002 (ip), vehicle: saline with Tween-80)?
A: Its T/C is 154 % of control.

Q: And the T/C (dose: 12.5 mg/kg/injection, schedule: Q04DX002 (ip), vehicle: saline with Tween-80)?
A: The T/C was 123 % of control.

Q: For `C=C1CC2(CCC3C4CC=C5CC(O)CCC5(C)C4CCC32C)OC1=O` (stereo unspecified), which T/C [1] is on record?
A: Its T/C is 104 % of control.

Q: And the T/C [2]?
A: Its T/C is 105 % of control.

Q: And the T/C (dose: 400.0 mg/kg/injection, schedule: Q04DX003 (ip), vehicle: Klucel (hydroxypropylcellulose) (HPC))?
A: The T/C was 97 % of control.

Q: With `CNC(=O)Oc1ccc(Sc2ccc(OC(=O)NC)c(Cl)c2)cc1Cl` as the compound, how does the T/C (dose: 50.0 mg/kg/injection, schedule: Q01DX005 (ip), vehicle: saline + Tween-80 + alcohol) read?
A: Its T/C is 106 % of control.

Q: And the T/C [3]?
A: Its T/C is 99 % of control and 118 % of control.

Q: What about the T/C (dose: 100.0 mg/kg/injection, schedule: Q01DX005 (ip), vehicle: saline + Tween-80 + alcohol) of the same compound?
A: The T/C was 119 % of control.

Q: And the T/C [4]?
A: The T/C was 102 % of control and 118 % of control.

Q: What about the T/C (dose: 200.0 mg/kg/injection, schedule: Q01DX005 (ip), vehicle: saline + Tween-80 + alcohol) of the same compound?
A: Its T/C is 114 % of control.

Q: What about the T/C [5] of the same compound?
A: Its T/C is 117 % of control.

Q: What about the T/C (dose: 400.0 mg/kg/injection, schedule: Q01DX005 (ip), vehicle: saline + Tween-80 + alcohol) of the same compound?
A: Its T/C is 124 % of control.

Q: What does the source list for `CCOC(=O)c1sc2nc(CN3CCOCC3)[nH]c(=O)c2c1C`?
A: T/C [3]: 94 % of control; T/C [4]: 98 % of control; T/C [5]: 98 % of control

Q: Which T/C (dose: 12.5 mg/kg/injection, schedule: Q01DX009 (ip), vehicle: distilled water + Tween-80) does the source give for `Oc1c(Br)cc(Br)cc1/C=N/NC(=S)N/N=C/c1cc(Br)cc(Br)c1O` here?
A: The T/C was 97 % of control.

Q: And the T/C (dose: 25.0 mg/kg/injection, schedule: Q01DX009 (ip), vehicle: distilled water + Tween-80)?
A: The T/C was 103 % of control and 108 % of control.

Q: What about the T/C (dose: 50.0 mg/kg/injection, schedule: Q01DX009 (ip), vehicle: distilled water + Tween-80) of the same compound?
A: The T/C was 118 % of control.

Q: Which results are given for `COCCOC(=O)Nc1c(Cl)cccc1Cl`?
A: T/C [6]: 98 % of control; T/C [7]: 100 % of control; T/C [8]: 100 % of control

Q: What does the source list for `CCc1[nH]c2ccc(C)cc2c1C(=O)c1cccnc1`?
A: T/C (dose: 50.0 mg/kg/injection, schedule: Q04DX003 (ip), vehicle: Klucel (hydroxypropylcellulose) (HPC)): 94 % of control; T/C [1]: 103 % of control; T/C [2]: 98 % of control

Q: With `COc1cccc(/C=C/c2cc3c(cc2Br)OCO3)c1` as the compound, how does the T/C (dose: 50.0 mg/kg/injection, schedule: Q01DX005 (ip), vehicle: Klucel (hydroxypropylcellulose) (HPC)) read?
A: Its T/C is 102 % of control.

Q: And the T/C (dose: 100.0 mg/kg/injection, schedule: Q01DX005 (ip), vehicle: Klucel (hydroxypropylcellulose) (HPC))?
A: Its T/C is 108 % of control.

Q: What about the T/C (dose: 200.0 mg/kg/injection, schedule: Q01DX005 (ip), vehicle: Klucel (hydroxypropylcellulose) (HPC)) of the same compound?
A: Its T/C is 101 % of control.

Q: What does the source list for `C=CC(C)(CCC=C(C)C)ON(CC)CC` (stereo unspecified)?
A: T/C (dose: 100.0 mg/kg/injection, schedule: Q04DX002 (ip), vehicle: saline with Tween-80): 108 % of control; T/C (dose: 200.0 mg/kg/injection, schedule: Q04DX002 (ip), vehicle: saline with Tween-80): 113 % of control; T/C (dose: 400.0 mg/kg/injection, schedule: Q04DX002 (ip), vehicle: saline with Tween-80): 92 % of control

Q: With `c1cc2nc(-c3ccc4cc(C5=NCCN5)[nH]c4c3)[nH]c2cc1C1=NCCN1` as the compound, how does the T/C (dose: 12.5 mg/kg/injection, schedule: Q01DX005 (ip), vehicle: saline) read?
A: Its T/C is 106 % of control.

Q: And the T/C (dose: 25.0 mg/kg/injection, schedule: Q01DX005 (ip), vehicle: saline)?
A: Its T/C is 106 % of control.

Q: What about the T/C (dose: 50.0 mg/kg/injection, schedule: Q01DX005 (ip), vehicle: saline) of the same compound?
A: The T/C was 99 % of control.

Q: Which results are given for `CC(NC(=O)C(Cc1ccccc1)NC(=O)c1ccc[n+](Cc2ccccc2)c1)C(N)=O` (stereo unspecified)?
A: T/C (dose: 60.0 mg/kg/injection, schedule: Q01DX005 (ip), vehicle: saline): 97 % of control; T/C (dose: 120.0 mg/kg/injection, schedule: Q01DX005 (ip), vehicle: saline): 93 % of control

Q: Which T/C [6] does the source give for `O=C(O)c1cn2c3c(cc(N4CCN(CCO)CC4)cc3c1=O)SCC2` here?
A: Its T/C is 104 % of control.

Q: What about the T/C [7] of the same compound?
A: The T/C was 113 % of control.

Q: What about the T/C [8] of the same compound?
A: Its T/C is 105 % of control.

Q: `c1ccc(N(c2ccccc2)c2nnnn2-c2ccccc2)cc1` was tested. Which T/C (dose: 25.0 mg/kg/injection, schedule: Q01DX009 (ip), vehicle: saline with Tween-80) did it give?
A: The T/C was 98 % of control.

Q: What about the T/C (dose: 50.0 mg/kg/injection, schedule: Q01DX009 (ip), vehicle: saline with Tween-80) of the same compound?
A: Its T/C is 94 % of control.

Q: And the T/C (dose: 100.0 mg/kg/injection, schedule: Q01DX009 (ip), vehicle: saline with Tween-80)?
A: The T/C was 89 % of control.

Q: For `C=C(C)C(=O)OC1CCC2Cc3occ(C)c3C(OC(=O)C(=C)C)C2(C)C1C` (stereo unspecified), which T/C (dose: 20.0 mg/kg/injection, schedule: Q01DX009 (ip), vehicle: saline with Tween-80) is on record?
A: Its T/C is 93 % of control.

Q: What about the T/C (dose: 40.0 mg/kg/injection, schedule: Q01DX009 (ip), vehicle: saline with Tween-80) of the same compound?
A: Its T/C is 102 % of control.

Q: And the T/C (dose: 80.0 mg/kg/injection, schedule: Q01DX009 (ip), vehicle: saline with Tween-80)?
A: The T/C was 93 % of control.

Q: And the T/C (dose: 160.0 mg/kg/injection, schedule: Q01DX009 (ip), vehicle: saline with Tween-80)?
A: Its T/C is 93 % of control.
